Drawing on patent publication US6514968B1, “Aminoalkoxy carbazoles for the treatment of cns diseases” (Pharmacia & Upjohn Company, priority 1999, dated 2003), this text covers Ki for 34 compounds.

Molecules are shown by their SMILES.

In this test the target is T1, cloned human 5-HT6 receptor (Homo sapiens, UniProt P50406).
T1 construct: host or cells: HeLa cells (G-418 selection), membrane preparation
T1 sequence (P50406 whole entry): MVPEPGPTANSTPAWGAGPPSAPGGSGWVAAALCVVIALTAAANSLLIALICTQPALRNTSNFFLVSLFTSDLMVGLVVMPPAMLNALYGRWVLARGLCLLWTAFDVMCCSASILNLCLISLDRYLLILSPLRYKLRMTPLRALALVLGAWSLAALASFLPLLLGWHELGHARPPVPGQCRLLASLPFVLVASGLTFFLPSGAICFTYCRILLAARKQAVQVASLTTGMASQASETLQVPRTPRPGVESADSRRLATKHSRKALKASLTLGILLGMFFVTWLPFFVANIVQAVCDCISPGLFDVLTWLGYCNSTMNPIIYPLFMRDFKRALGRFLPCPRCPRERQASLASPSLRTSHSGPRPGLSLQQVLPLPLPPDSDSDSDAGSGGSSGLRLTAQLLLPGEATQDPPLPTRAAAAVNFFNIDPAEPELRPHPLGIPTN
Description: 5-HT6 Receptor Binding Assay. The conditions noted are these: [3H]-lysergic acid diethylamide (LSD) radioligand, membranes of Hela cells containing the cloned human 5-HT6 receptor, SPA beads; estimated IC50 converted to Ki by Cheng-Prusoff. As to the method:
5-HT6 Receptor Binding Assay
Growth of Cells and Membrane Preparation
Hela cells containing the cloned human 5-HT6 receptor were acquired from Dr. David R. Sibley's laboratory in National Institute of Health (see Sibley, D. R., J. Neurochemistry, 66, 47-56, 1996). Cells were grown in high glucose Dulbecco's modified Eagle's medium, supplemented with L-glutamine, 0.5% sodium pyruvate, 0.3% penicillin-streptomycin, 0.025% G-418 and 5% Gibco fetal bovine serum and then were harvested, when confluent, in cold phosphate-buffered saline.
Harvested intact cells were washed once in cold phosphate-buffered saline. The cells were pelleted and resuspended in 100 ml of cold 50 mM Tris, 5 mM EDTA and 5 mM EGTA, pH 7.4. Homogenization was with a Vir Tishear generator, 4 cycles for 30 seconds each at setting 50. The homogenized cells were centrifuged at 700 RPM (1000×g) for 10 minutes and the supernatant was removed. The pellet was resuspended in 100 ml of the above buffer and rehomogenized for 2 cycles. The rehomogenized cells were then centrifuged at 700 RPM (1000×g) for 10 minutes and the supernatant was removed. The combined supernatant (200ml) was centrifuged at 23,000 RPM (80,000×g) for 1 hour in a Beckman Rotor (42.1 Ti). The membrane pellet was resupended in 50-8-ml of assay buffer containing HEPES 20 mM, MgCl2 10 mM, NaCl 150 mM, EDTA 1 mM, pH 7.4 and stored frozen in aliqouts at −70° C.
The radioligand binding assay used [^3H]-lysergic acid diethylamide (LSD). The assay was carried out in Wallac 96-well sample plates by the addition of 11 μl of the test sample at the appropriate dilution (the assay employed 11 serial concentrations of samples run in duplicate), 11 μl of radioligand, and 178 μl of a washed mixture of WGA-coated SPA beads and membranes in binding buffer. The plates were shaken for about 5 minutes and then incubated at room temperature for 1 hour. The plates were then loaded into counting cassettes and counted in a Wallac MicroBeta Trilux scintillation counter.
Binding Constant (Ki) Determination
Eleven serial dilutions of test compounds were distributed to assay plates using the PE/Cetus Pro/Pette pipetter. These dilutions were, followed by radioligand and the bead-membrane mixture prepared as described above. The specifically bound cpm obtained were fit to a one-site binding model using GraphPad Prism ver. 2.0. Estimated IC50 values were converted to Ki values using the Cheng-Prusoff equation (Cheng, Y. C. et al., Biochem. Pharmacol., 22, 3099-108, 1973).
Turning to `Fc1ccc(CCNCCOc2cccc3c2c2ccccc2n3Cc2ccccc2)cc1` [Example 22, 2-[(9-benzyl-9H-carbazol-4-yl)oxy]-N-(4-fluorophenethyl)-1-ethanamine], the Ki is 81 nM.

As for `c1ccc(Cn2c3ccccc3c3c(OCCN4CCOCC4)cccc32)cc1` [Example 8, 9-benzyl-4-[2-(4-morpholinyl)ethoxy]-9H-carbazole], the Ki was 398 nM.

On to `c1ccc(Cn2c3ccccc3c3c(OCCN4CCCC4)cccc32)cc1` [Example 38, 9-Benzyl-4-[2-(1-pyrrolidinyl)ethoxy]-9H-carbazole], for which the inhibitory constant (Ki) was 6.9 nM.

Regarding `c1ccc(Cn2c3ccccc3c3c(OCCN4CCNCC4)cccc32)cc1` [Example 40, 9-Benzyl-4-[2-(1-piperazinyl)ethoxy]-9H-carbazole], the inhibition constant (Ki) is 88 nM.

Take `CCN(CC)CCOc1cccc2c1c1cccc(C)c1n2Cc1ccccc1` [Example 4, N-{2-[(9-Benzyl-8-methyl-9H-carbazol-4-yl)oxy]ethyl}-N,N-diethylamine]: the Ki was 18 nM.

For the compound `c1ccc(Cn2c3ccccc3c3c(OCCNCCN4CCOCC4)cccc32)cc1` [Example 20, 2-[(9-benzyl-9H-carbazol-4-yl)oxy]-N-[2-(4-morpholinyl)ethyl]-1-ethanamine], the Ki is 37 nM.

In the case of `OCCN1CCN(CCOc2cccc3c2c2ccccc2n3Cc2ccccc2)CC1` [Example 9, 2-(4-{2-[(9-benzyl-9H-carbazol-4-yl)oxy]ethyl}-1-piperazinyl)-1-ethanol], the inhibition constant (Ki) is 62 nM.

With `CCNCCOc1cccc2c1c1ccccc1n2Cc1ccccc1` [Example 37, 2-[(9-benzyl-9H-carbazol-4-yl)oxy]-N-ethyl-1-ethanamine], the inhibition constant Ki was 11 nM.

On to `c1ccc(Cn2c3ccccc3c3c(OCCNC4CC4)cccc32)cc1` [Example 31, N-{2-[(9-benzyl-9H-carbazol-4-yl)oxy]ethyl}-N-cyclopropylamine], for which the Ki is 21 nM.

With `COc1cccc(Cn2c3ccccc3c3c(OCCN)cccc32)c1` [Example 57, 2-{[9-(3-Methoxybenzyl)-9H-carbazol-4-yl]oxy}ethylamine], the inhibitory constant (Ki) was 110 nM.

On to `CCN(CC)CCOc1cccc2c1c1cc(C)ccc1n2Cc1ccc(F)cc1` [Example 48, N,N-Diethyl-N-(2-{[9-(4-fluorobenzyl)-6-methyl-9H-carbazol-4-yl]oxy}ethyl)amine], for which the Ki is 123 nM.

Regarding `NCCOc1cccc2c1c1ccccc1n2Cc1csc2ccc(Cl)cc12` [Example 50, 2-({9-[(5-Chloro-1-benzothiophen-3-yl)methyl]-9H-carbazol-4-yl}oxy)ethylamine], the inhibition constant Ki was 138 nM.

Consider `c1ccc(Cn2c3ccccc3c3c(OCCNCc4nc5ccccc5[nH]4)cccc32)cc1` [Example 28, N-(1H-benzimidazol-2-ylmethyl)-2-[(9-benzyl-9H-carbazol-4-yl)oxy]-1-ethanamine], for which the Ki was 72 nM.

Take `Clc1ccc(CCNCCOc2cccc3c2c2ccccc2n3Cc2ccccc2)cc1` [Example 18, 2-[(9-benzyl-9H-carbazol-4-yl)oxy]-N-(4-chlorophenethyl)-1-ethanamine]: the Ki was 356 nM.

Regarding `CCOC(=O)CCNCCOc1cccc2c1c1ccccc1n2Cc1ccccc1` [Example 25, ethyl 3-({2-[(9-benzyl-9H-carbazol-4-yl)oxy]ethyl}amino)propanoate], the Ki was 40 nM.

Take `c1ccc(CN2CCC(NCCOc3cccc4c3c3ccccc3n4Cc3ccccc3)CC2)cc1` [Example 16, 1-benzyl-N-{2-[(9-benzyl-9H-carbazol-4-yl)oxy]ethyl}-4-piperidinamine]: the Ki is 148 nM.

Consider `c1ccc(Cn2c3ccccc3c3c(OCCNCC4CCCCC4)cccc32)cc1` [Example 19, 2-[(9-benzyl-9H-carbazol-4-yl)oxy]-N-(cyclohexylmethyl)-1-ethanamine], for which the Ki was 311 nM.

Regarding `NCCOc1c(Cl)ccc2c1c1ccccc1n2Cc1ccccc1` [Example 52, 2-[(9-Benzyl-3-chloro-9H-carbazol-4-yl)oxy]ethylamine], the Ki is 24 nM.

For the compound `c1ccc(Cn2c3ccccc3c3c(OCCNC4CCC4)cccc32)cc1` [Example 26, N-{2-[(9-benzyl-9H-carbazol-4-yl)oxy]ethyl}cyclobutanamine], the Ki was 47 nM.

Take `NCCOc1cccc2c1c1ccccc1n2Cc1cccc(Br)c1` [Example 53, 2-{[9-(3-Bromobenzyl)-9H-carbazol-4-yl]oxy}ethylamine]: the inhibition constant (Ki) was 127 nM.

For `COc1ccc2c3c(OCCN)cccc3n(Cc3ccccc3)c2c1` [Example 62, 2-[(9-Benzyl-7-methoxy-9H-carbazol-4-yl)oxy]ethylamine], the Ki was 60 nM.

With `OCCOCCNCCOc1cccc2c1c1ccccc1n2Cc1ccccc1` [Example 23, 2-[2-({2-[(9-benzyl-9H-carbazol-4-yl)oxy]ethyl}amino)ethoxy]-1-ethanol], the Ki was 32 nM.

Take `NCCOc1cccc2c1c1ccccc1n2Cc1ccccc1` [Example 35, 2-[(9-Benzyl-9H-carbazol-4-yl)oxy]ethylamine]: the Ki is 23 nM.

Consider `O[C@H]1CCCC[C@@H]1NCCOc1cccc2c1c1ccccc1n2Cc1ccccc1` [Example 24, (1S,2S)-2-({2-[(9-benzyl-9H-carbazol-4-yl)oxy]ethyl}amino)cyclohexanol], for which the Ki was 85 nM.

Consider `C=CCNCCOc1cccc2c1c1ccccc1n2Cc1ccccc1` [Example 11, N-{2-[(9-benzyl-9H-carbazol-4-yl)oxy]ethyl}-2-propen-1-amine], for which the Ki is 23 nM.

For the compound `CCC(O)CNCCOc1cccc2c1c1ccccc1n2Cc1ccccc1` (stereo not shown) [Example 21, 1-({2-[(9-benzyl-9H-carbazol-4-yl)oxy]ethyl}amino)-2-butanol], the inhibitory constant (Ki) was 72 nM.

As for `COc1ccc2c(c1)c1c(OCCN)cccc1n2Cc1ccccc1` [Example 61, 2-[(9-Benzyl-6-methoxy-9H-carbazol-4-yl)oxy]ethylamine], the Ki was 27 nM.

On to `OCCCCCNCCOc1cccc2c1c1ccccc1n2Cc1ccccc1` [Example 13, 5-({2-[(9-benzyl-9H-carbazol-4-yl)oxy]ethyl}amino)-1-pentanol], for which the Ki is 43 nM.

For `OC1CCN(CCOc2cccc3c2c2ccccc2n3Cc2ccccc2)CC1` [Example 29, 1-{2-[(9-benzyl-9H-carbazol-4-yl)oxy]ethyl}-4-piperidinol], the Ki is 11 nM.

As to `Cc1ccc(Cn2c3ccccc3c3c(OCCN)cccc32)cc1` [Example 55, 2-{[9-(4-Methylbenzyl)-9H-carbazol-4-yl]oxy}ethylamine], the Ki is 482 nM.

For `CCN(CC)CCOc1cccc2c1c1cccc(C)c1n2Cc1ccc(F)cc1` [Example 5, N,N-Diethyl-N-(2-{[9-(4-fluorobenzyl)-8-methyl-9H-carbazol-4-yl]oxy}ethyl)amine], the inhibitory constant (Ki) is 38 nM.

For the compound `OCCCNCCOc1cccc2c1c1ccccc1n2Cc1ccccc1` [Example 10, 3-({2-[(9-benzyl-9H-carbazol-4-yl)oxy]ethyl}amino)-1-propanol], the Ki was 20 nM.

For the compound `CN1CCN(CCOc2cccc3c2c2ccccc2n3Cc2ccccc2)CC1` [Example 30, 9-benzyl-4-[2-(4-methyl-1-piperazinyl)ethoxy]-9H-carbazole], the Ki was 12 nM.

On to `CCCNCCOc1cccc2c1c1ccccc1n2Cc1ccccc1` [Example 14, N-{2-[(9-benzyl-9H-carbazol-4-yl)oxy]ethyl}-1-propanamine], for which the Ki is 40 nM.
